Values of other authors as cited in patent US20260248735A1, “A METHOD FOR PREPARING MICROPARTICLES FOR DRUG DELIVERY” (Danmarks Tekniske Universitet, priority 2023, published 2026).

Details: as characterised by BCS class

Which solubility does the source give for calcitonin here?
Its solubility is “high”.
